Experimental data published in PubChem BioAssay (NCI).
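Method: 48-hour compound exposure of cells in 96-well plates, five concentrations, linear interpolation of endpoints. The concentration for full growth arrest is given as TGI.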

Legend:
Experiment in all cases: growth of human tumour cells (NCI), 48 h
SF-539 CNS = test system: SF-539 CNS
SR leukemia = test system: SR leukemia
ACHN renal = test system: ACHN renal
RPMI-8226 leukemia = test system: RPMI-8226 leukemia
SNB-78 CNS = test system: SNB-78 CNS
HCT-15 colon = test system: HCT-15 colon
MALME-3M melanoma = test system: MALME-3M melanoma
UACC-257 melanoma = test system: UACC-257 melanoma
OVCAR-4 ovarian = test system: OVCAR-4 ovarian
M14 melanoma = test system: M14 melanoma
LXFL 529 NSCLC = test system: LXFL 529 NSCLC
TK-10 renal = test system: TK-10 renal
CCRF-CEM leukemia = test system: CCRF-CEM leukemia
DMS 273 small cell lung = test system: DMS 273 small cell lung
EKVX NSCLC = test system: EKVX NSCLC
HL-60(TB) leukemia = test system: HL-60(TB) leukemia
LOX IMVI melanoma = test system: LOX IMVI melanoma
NCI-H460 lung = test system: NCI-H460 lung
SNB-75 CNS = test system: SNB-75 CNS
SK-OV-3 ovarian = test system: SK-OV-3 ovarian
HCC-2998 colon = test system: HCC-2998 colon
U251 CNS = test system: U251 CNS
M19-MEL melanoma = test system: M19-MEL melanoma
NCI-H522 lung = test system: NCI-H522 lung
IGROV1 ovarian = test system: IGROV1 ovarian
786-0 renal = test system: 786-0 renal
SF-295 CNS = test system: SF-295 CNS
HCT-116 colon = test system: HCT-116 colon
DMS 114 small cell lung = test system: DMS 114 small cell lung
OVCAR-5 ovarian = test system: OVCAR-5 ovarian
SK-MEL-5 melanoma = test system: SK-MEL-5 melanoma
HOP-18 NSCLC = test system: HOP-18 NSCLC
A549 NSCLC = test system: A549 NSCLC
MOLT-4 leukemia = test system: MOLT-4 leukemia
RXF 393 renal = test system: RXF 393 renal
KM12 colon = test system: KM12 colon
OVCAR-8 ovarian = test system: OVCAR-8 ovarian
DLD-1 colon = test system: DLD-1 colon
HOP-62 NSCLC = test system: HOP-62 NSCLC
CAKI-1 renal = test system: CAKI-1 renal
KM20L2 colon = test system: KM20L2 colon
UACC-62 melanoma = test system: UACC-62 melanoma
SN12C renal = test system: SN12C renal
XF 498 CNS = test system: XF 498 CNS
A498 renal = test system: A498 renal
SW-620 colon = test system: SW-620 colon
SK-MEL-28 melanoma = test system: SK-MEL-28 melanoma
COLO 205 colon = test system: COLO 205 colon
SF-268 CNS = test system: SF-268 CNS
NCI-H226 lung = test system: NCI-H226 lung
K-562 leukemia = test system: K-562 leukemia
UO-31 renal = test system: UO-31 renal
SNB-19 CNS = test system: SNB-19 CNS
OVCAR-3 ovarian = test system: OVCAR-3 ovarian
SK-MEL-2 melanoma = test system: SK-MEL-2 melanoma

Measured: TGI

O=C(/C=C/c1ccccc1Cl)NC1C=Nc2ccc([N+](=O)[O-])cc2NC1 (stereo not given)
96.2 µM: SR leukemia
18.2 µM: SW-620 colon
49.3 µM: MOLT-4 leukemia
84.8 µM: CCRF-CEM leukemia
> 100 µM: all other assays above
